In PubChem BioAssay AID2060358 (Molecular Pharmacology Branch, DTP, NCI, 2025):

Test system: 254851-301-R-J1-PDC spheroids, viability % test/control
Experiment: Anticancer human tumor 254851-301-R-J1-PDC patient-derived colon carcinoma cell line growth inhibition [TAK]
Details: spheroids with HUVEC and MSC; for IC50: curve of first compound; for viability, T/C: stronger effect = lower value
Outline: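 Drug combinations, each paired with TAK-243 or ipatasertib, were tested on multi-cell spheroids of 60% malignant cells, 25% HUVEC and 15% hMSC. Top concentrations were at or near the clinical Cmax (10 microM if undetermined), decreasing by half-log; viability is given as % test/control.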

[1] = second compound 0.3 µM, first compound 0.0316 µM
[2] = second compound 0.3 µM, first compound 0.1 µM
[3] = second compound 0.3 µM, first compound 0.316 µM
[4] = second compound 0.3 µM, first compound 1 µM
[5] = second compound 0.949 µM, first compound 0.0316 µM
[6] = second compound 0.949 µM, first compound 0.1 µM
[7] = second compound 0.949 µM, first compound 0.316 µM
[8] = second compound 0.949 µM, first compound 1 µM
[9] = second compound 3 µM, first compound 0.0316 µM
[10] = second compound 3 µM, first compound 0.1 µM
[11] = second compound 3 µM, first compound 0.316 µM
[12] = second compound 3 µM, first compound 1 µM
[13] = second compound 9.49 µM, first compound 0.0316 µM
[14] = second compound 9.49 µM, first compound 0.1 µM
[15] = second compound 9.49 µM, first compound 0.316 µM
[16] = second compound 9.49 µM, first compound 1 µM
[17] = second compound 30 µM, first compound 0.0316 µM
[18] = second compound 30 µM, first compound 0.1 µM
[19] = second compound 30 µM, first compound 0.316 µM
[20] = second compound 30 µM, first compound 1 µM
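Also: spheroids exposed to drugs for seven days before viability readout.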
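For viability, T/C in this document: 100% = DMSO vehicle control viability.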

SMILES	IC50 (second compound 0.3 µM)	IC50 (second compound 0.949 µM)	IC50 (second compound 3 µM)	IC50 (second compound 9.49 µM)	IC50 (second compound 30 µM)	viability, T/C [1]	viability, T/C [2]	viability, T/C [3]	viability, T/C [4]	viability, T/C [5]	viability, T/C [6]	viability, T/C [7]	viability, T/C [8]	viability, T/C [9]	viability, T/C [10]	viability, T/C [11]	viability, T/C [12]	viability, T/C [13]	viability, T/C [14]	viability, T/C [15]	further results
COc1c(OCCCN2CCOCC2)ccc2c3n(c(=NC(=O)c4cnc(N)nc4)nc12)CCN3 + CC(C)NCC(C(=O)N1CCN(c2ncnc3c2C(C)CC3O)CC1)c1ccc(Cl)cc1	> 1 µM	> 1 µM	> 1 µM	> 1 µM	> 1 µM	88.2%	78.1%	63.7%	67.6%	92.5%	76.3%	60%	65%	95.5%	82.7%	76.8%	67.3%	101%	82.4%	75.8%	viability, T/C (second compound 0.3 µM, first compound 0.00316 µM): 114%; viability, T/C (second compound 0.3 µM, first compound 0.01 µM): 105%; viability, T/C (second compound 0.949 µM, first compound 0.00316 µM): 104%; viability, T/C (second compound 0.949 µM, first compound 0.01 µM): 106%; viability, T/C (second compound 3 µM, first compound 0.00316 µM): 111%; viability, T/C (second compound 3 µM, first compound 0.01 µM): 108%; viability, T/C (second compound 9.49 µM, first compound 0.00316 µM): 99.1%; viability, T/C (second compound 9.49 µM, first compound 0.01 µM): 100%; viability, T/C [16]: 74.4%; viability, T/C (second compound 30 µM, first compound 0.00316 µM): 81.5%; viability, T/C (second compound 30 µM, first compound 0.01 µM): 85.1%; viability, T/C [17]: 84.2%; viability, T/C [18]: 71.5%; viability, T/C [19]: 69.8%; viability, T/C [20]: 59.9%
Cc1nc(NC(=O)N2CCCC2C(N)=O)sc1-c1ccnc(C(C)(C)C(F)(F)F)c1 (stereo not given) + CC(C)NCC(C(=O)N1CCN(c2ncnc3c2C(C)CC3O)CC1)c1ccc(Cl)cc1	> 10 µM	> 10 µM	> 10 µM	> 10 µM	> 10 µM	117%	102%	109%	89.4%	106%	114%	93.6%	99.5%	113%	101%	98%	94.6%	105%	106%	101%	viability, T/C (second compound 0.3 µM, first compound 3.16 µM): 79.4%; viability, T/C (second compound 0.3 µM, first compound 10 µM): 73.4%; viability, T/C (second compound 0.949 µM, first compound 3.16 µM): 83.1%; viability, T/C (second compound 0.949 µM, first compound 10 µM): 69%; viability, T/C (second compound 3 µM, first compound 3.16 µM): 79.3%; viability, T/C (second compound 3 µM, first compound 10 µM): 73.9%; viability, T/C [16]: 97.3%; viability, T/C (second compound 9.49 µM, first compound 3.16 µM): 85%; viability, T/C (second compound 9.49 µM, first compound 10 µM): 74.8%; viability, T/C [17]: 82.5%; viability, T/C [18]: 99.3%; viability, T/C [19]: 88.4%; viability, T/C [20]: 79.4%; viability, T/C (second compound 30 µM, first compound 3.16 µM): 79.4%; viability, T/C (second compound 30 µM, first compound 10 µM): 69.4%
